Laboratory results from patent US20220009914A1, “Analogs of Nitrofuran Antibiotics to Combat Resistance” (The Trustees of Indiana University, priority 2020, published 2022).
Where two headings read alike, the source gives them in different places.

What was measured:
[1] = system: Enterobacter cloacae strain CDC 442-68 (ATCC #13047); experiment: bacterial proliferation assay, E. cloacae; format: cell-based; settings: ATCC13047, read-out: Bacterial Proliferation EC50 E. cloacae
Procedure: (§1) All compounds were evaluated for inhibiting the proliferation of E. coli and each of the ESKAPE bacteria. Results presented represent the averages of EC50 values obtained from at least four replicates. Evaluating compounds for inhibition of bacterial cell proliferation.
(§2) Growth Media: E. coli were grown with LB medium and all ESKAPE bacteria were grown in Brain Heart Infusion (BHI) medium (Becton, Dickinson and Company), with all liquid cultures supplemented with 25 mg/L Ca^2+ and 12.5 mg/L Mg^2+ to mimic physiological free concentrations of these cations. A 10 mg/mL Ca^2+ stock solution was prepared by dissolving 1.84 g of CaCl2.2H2O in 50 mL of deionized water, and a 10 mg/mL Mg^2+ stock solution was prepared by dissolving 4.18 g of MgCl2.6H2O in 50 mL deionized water—filter sterilized using 0.2 μm cellulose-acetate filters. 2.5 mL of the sterile 10 mg/mL Ca^2+ stock and 1.25 mL of the sterile 10 mg/mL Mg^2+ stock solutions were added per 1 L of autoclaved LB or BHI media to obtain 25 mg/L Ca^2+ and 12.5 mg/L Mg^2+ ions, respectively.
(§3) General Assay Protocol: Stock bacterial cultures were streaked onto LB or BHI agar plates and grown overnight at 37° C. Fresh aliquots of cation supplemented media were inoculated with single bacterial colonies and the cultures were grown overnight at 37° C. with shaking (240 rpm). The following morning, cultures were diluted 10-fold into fresh media and grown at 37° C. until bacteria had reached mid-log phase growth (OD600˜0.4-0.6). The cultures were then diluted into fresh media to achieve final OD600 readings of 0.017. Aliquots of these diluted cultures (30 μL) were added to clear, flat-bottom 384-well polystyrene plates that were previously stamped with 0.5 μL of test compounds in 20 μL of media (yielding initial OD600=0.01 bacterial cultures). All compounds were tested in dose-response with concentration ranges during the proliferation assays from 100 μM to 46 nM (3-fold dilution series). A second set of baseline control plates were prepared analogously, but without any bacteria added, to correct for possible compound absorbance and/or precipitation. […] Plates were then read at 600 nm using a Molecular Devices SpectraMax Plus384 microplate reader. […] Results presented represent the averages of EC50 values obtained from at least four replicates.
(§4) Evaluating analogs for inhibiting the growth of E. coli and the ESKAPE bacteria. Analogs were initially tested for antibacterial efficacy against representative strains of antibiotic-sensitive E. coli and the ESKAPE bacteria. To determine compound efficacy, bacterial proliferation assays were carried out in liquid media culture supplemented with physiological concentrations of free calcium and magnesium cations. For these assays, bacterial cultures (OD600=0.01) were exposed to test compounds in 8-point, 3-fold dilution series (100 μM to 46 nM concentration range), in 384-well plates. After addition of compounds to cultures, the plates were sealed with Breathe-Easy gas permeable membranes and allowed to grow to mid-log phase (OD600˜0.4-0.6), whereupon final OD600 readings were taken to assess for bacterial growth and inhibition.

[2] = system: Klebsiella pneumoniae strain NCTC 9633 (ATCC #13883); experiment: bacterial proliferation assay, K. pneumoniae; format: cell-based; settings: read-out: Bacterial Proliferation EC50 K. pneumoniae
Procedure: as §1, §2, §3, §4

[3] = target: T1, E. coli GroEL/ES (Escherichia coli, UniProt P0A6F5); experiment: GroEL/ES-mediated dMDH refolding assay; format: biochemical
T1 construct: made in house; host or cells: GroEL in NEB 5-alpha E. coli; GroES in E. coli BL21 (DE3)
T1 sequence (P0A6F5 2-548): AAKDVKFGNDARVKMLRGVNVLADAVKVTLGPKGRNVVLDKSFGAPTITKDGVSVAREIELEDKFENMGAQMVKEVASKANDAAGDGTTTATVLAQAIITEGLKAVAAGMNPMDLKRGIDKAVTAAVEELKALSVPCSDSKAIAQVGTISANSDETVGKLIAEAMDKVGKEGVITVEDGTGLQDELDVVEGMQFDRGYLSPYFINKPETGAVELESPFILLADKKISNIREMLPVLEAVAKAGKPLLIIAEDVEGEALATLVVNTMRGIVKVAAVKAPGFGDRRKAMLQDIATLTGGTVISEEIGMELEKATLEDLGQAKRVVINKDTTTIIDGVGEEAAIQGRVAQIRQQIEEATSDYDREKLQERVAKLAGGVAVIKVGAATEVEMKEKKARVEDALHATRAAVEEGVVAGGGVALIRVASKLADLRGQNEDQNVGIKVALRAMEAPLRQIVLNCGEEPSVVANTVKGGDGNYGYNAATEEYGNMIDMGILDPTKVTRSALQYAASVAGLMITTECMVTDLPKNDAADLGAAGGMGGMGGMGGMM
Procedure: Evaluating compounds for inhibition in the GroEL/ES-mediated dMDH refolding assay. All compounds were evaluated for inhibiting E. coli GroEL/ES-mediated refolding of the denatured MDH reporter enzyme. Reagent preparation: For these assays, four primary reagent stocks were prepared: 1) GroEL/ES-dMDH binary complex stock; 2) ATP initiation stock; 3) EDTA quench stock; 4) MDH enzymatic assay stock. Denatured MDH (dMDH) was prepared by 2-fold dilution of MDH (5 mg/ml, soluble pig heart MDH from Roche, product #10127248001) with denaturant buffer (7 M guanidine-HCl, 200 mM Tris, pH 7.4, and 50 mM DTT). MDH was completely denatured by incubating at room temperature for >45 min. The binary complex solutions were prepared by slowly adding the dMDH stock to a stirring stock with GroEL and GroES in folding buffer (50 mM Tris-HCl, pH 7.4, 50 mM KCl, 10 mM MgC2, and 1 mM DTT). […] For the ATP initiation stock, ATP solid was diluted into folding buffer to a final concentration of 2.5 mM. Quench solution contained 600 mM EDTA (pH 8.0). The MDH enzymatic assay stock consisted of 20 mM sodium mesoxalate and 1.6 mM NADH in reaction buffer (50 mM Tris-HCl, pH 7.4, 50 mM KCl, and 1 mM DTT).
Assay Protocol: First, 30 μL aliquots of the GroEL/ES-dMDH binary complex stocks were dispensed into clear, 384-well polystyrene plates. […] The chaperonin-mediated refolding cycles were initiated by addition of 20 μL of ATP stock (reagent concentrations during refolding cycle: 50 nM GroEL, 60 nM GroES, 12 nM dMDH, 1 mM ATP, and compounds of 100 μM to 46 nM, 3-fold dilution series) and the refolding reactions were incubated at 37° C. […] Next, the assay was quenched by addition of 10 μL of the EDTA stock to give a final concentration of 100 mM in the wells. […] A340 nm measurements were recorded at 0.5 minutes (start point) and at successive time points until the amount of NADH consumed reached ˜90% (end point, generally between 20-35 minutes).
Evaluating analogs for inhibiting GroEL/ES-mediated substrate refolding functions. […] We first evaluated all test compounds in our standard GroEL/ES-mediated refolding assays that employ either malate dehydrogenase (MDH) or rhodanese (Rho) as the denatured substrate reporter enzymes. When denatured, these enzymes are efficiently folded by GroEL/ES in the absence of inhibitors, and thus act as reporters to determine the degree of inhibition against the bacterial chaperonin system. Inhibition was examined in the presence of these two orthogonal substrates in order to support that GroEL/ES inhibitors were on-target. To further support on-target effects against GroEL/ES, we counter-screened for inhibition of the native MDH and Rho enzymatic reporter reactions, where test compounds were added after the denatured MDH and Rho substrate enzymes were completely refolded by GroEL/ES.

| SMILES | EC50 [1] | EC50 ([2]; Klebsiella pneumoniae) | IC50 [3] | IC50 ([3]; without NfsB nitroreductase, read-out: GroEL/ES-dMDH Refolding IC50) | EC50 [2] |
| --- | --- | --- | --- | --- | --- |
| O=C(N/N=C/c1ccc([N+](=O)[O-])o1)c1ccc(O)cc1 [Nifuroxazide, reference compound] | 54 µM | 37 µM | > 100 µM |  |  |
| O=Cc1ccc(O)c2ncccc12 [Compound 40, reference compound] | 24 µM | 15 µM |  | > 100 µM |  |
| O=C(N/N=C/c1ccc(O)c2ncccc12)c1cccc2ccccc12 [Compound 9, N′-((8-hydroxyquinolin-5-yl)methylene)-1-naphthohydrazide] | > 100 µM | > 100 µM | 13 µM |  |  |
| O=C(N/N=C/c1ccc([N+](=O)[O-])o1)c1ccc(NS(=O)(=O)c2cccs2)cc1 [Compound 26, N-(4-(2-((5-nitrofuran-2-yl)methylene)hydrazine-1-carbonyl)phenyl)thiophene-2-sulfonamide] | > 100 µM | > 100 µM | > 100 µM |  |  |
| CCOc1ccc(S(=O)(=O)Nc2ccc(C(=O)N/N=C/c3ccc(O)c4ncccc34)cc2)cc1 [Compound 15, 4-ethoxy-N-(4-(2-((8-hydroxyquinolin-5-yl)methylene)hydrazine-1-carbonyl)phenyl)benzenesulfonamide] | > 100 µM | > 100 µM | 6 µM |  |  |
| O=C(N/N=C/c1ccc(O)cc1)c1ccccc1 [Compound 36, N′-(4-hydroxybenzylidene)benzohydrazide] | > 100 µM | > 100 µM | > 100 µM |  |  |
| COc1ccc(C(=O)N/N=C/c2ccco2)cc1 [Compound 39, N′-(furan-2-ylmethylene)-4-methoxybenzohydrazide] | > 100 µM | > 100 µM | > 100 µM |  |  |
| O=C(N/N=C/c1cccc2ccccc12)c1ccccc1 [Compound 34, N′-(naphthalen-1-ylmethylene)benzohydrazide] | > 100 µM | > 100 µM | > 100 µM |  |  |
| O=C(N/N=C/c1ccc(O)c2ncccc12)c1ccccc1 [Compound 5, N′-((8-hydroxyquinolin-5-yl)methylene)benzohydrazide] | 80 µM | 82 µM | > 100 µM |  |  |
| O=C(N/N=C/c1ccc(O)c2ncccc12)c1ccc(NS(=O)(=O)c2ccc(Br)cc2)cc1 [Compound 14, 4-bromo-N-(4-(2-((8-hydroxyquinolin-5-yl)methylene)hydrazine-1-carbonyl)phenyl)benzenesulfonamide] | > 100 µM | > 100 µM | 14 µM |  |  |
| COc1ccc(C(=O)N/N=C/c2ccc(O)c3ncccc23)cc1 [Compound 1, N′-((8-hydroxyquinolin-5-yl)methylene)-4-methoxybenzohydrazide] | 100 µM |  | 77 µM |  | 85 µM |
| CCN(CC)S(=O)(=O)c1cccc(C(=O)N/N=C/c2ccc([N+](=O)[O-])o2)c1 [Compound 25, N,N-diethyl-3-(2-((5-nitrofuran-2-yl)methylene)hydrazine-1-carbonyl)benzenesulfonamide] | > 100 µM | > 100 µM | 90 µM |  |  |
| O=C(N/N=C/c1ccccc1)c1ccccc1 [Compound 38, N′-benzylidenebenzohydrazide] | > 100 µM | > 100 µM | > 100 µM |  |  |
| O=C(N/N=C/c1ccc(O)c2ncccc12)c1ccc(O)cc1 [Compound 7, 4-hydroxy-N′-((8-hydroxyquinolin-5-yl)methylene)benzohydrazide] | 97 µM | 87 µM | 43 µM |  |  |
| O=C(N/N=C/c1ccc([N+](=O)[O-])o1)c1ccc(NS(=O)(=O)c2ccc(Br)cc2)cc1 [Compound 27, 4-bromo-N-(4-(2-((5-nitrofuran-2-yl)methylene)hydrazine-1-carbonyl)phenyl)benzenesulfonamide] | > 100 µM | > 100 µM | 36 µM |  |  |
| O=C(N/N=C/c1cccc2ncccc12)c1ccccc1 [Compound 32, N′-(quinolin-5-ylmethylene)benzohydrazide] | > 100 µM | > 100 µM | > 100 µM |  |  |
